Measured values published in ChEMBL document CHEMBL2434921, “New synthetic aliphatic sulfonamido-quaternary ammonium salts as anticancer chemotherapeutic agents” (2013).
Active and inactive are the calls of the source. No cut-off for these calls is given here.

What was measured:
NCI-H23 [1] = assay: Growth inhibition of human NCI-H23 cells after 48 hrs by SRB assay; format: functional; conditions: NCI-H23, 48 h
HCT-15 [2] = assay: Growth inhibition of human HCT15 cells after 48 hrs by SRB assay; format: functional; conditions: HCT-15, 48 h
[3] = target: Rho-related GTP-binding protein RhoB (Homo sapiens) (UniProt P62745); assay: Transactivation of RhoB (unknown origin) transfected in human HeLa cells at 5 uM measured over 10 secs by dual luciferase reporter gene assay; format: cell-based
NUGC-3 [4] = assay: Growth inhibition of human NUGC3 cells after 48 hrs by SRB assay; format: functional; conditions: NUGC-3, 48 h
ACHN [5] = assay: Growth inhibition of human ACHN cells after 48 hrs by SRB assay; format: functional
MDA-MB-231 [6] = assay: Growth inhibition of human MDA-MB-231 cells after 48 hrs by SRB assay; format: functional; conditions: MDA-MB-231, 48 h
PC-3 [7] = assay: Growth inhibition of human PC3 cells after 48 hrs by SRB assay; format: functional; conditions: PC-3, 48 h
PC-3 [8] = assay: Growth of human PC3 cells at 10 uM after 48 hrs by SRB assay; conditions: PC-3, 48 h
NUGC-3 [9] = assay: Growth of human NUGC3 cells at 1 uM after 48 hrs by SRB assay; conditions: NUGC-3, 48 h
ACHN [10] = assay: Growth of human ACHN cells at 10 uM after 48 hrs by SRB assay
HCT-15 [11] = assay: Growth of human HCT15 cells at 3 uM after 48 hrs by SRB assay; conditions: HCT-15, 48 h
ACHN [12] = assay: Growth of human ACHN cells at 0.1 uM after 48 hrs by SRB assay
ACHN [13] = assay: Growth of human ACHN cells at 0.3 uM after 48 hrs by SRB assay
NUGC-3 [14] = assay: Growth of human NUGC3 cells at 0.1 uM after 48 hrs by SRB assay; conditions: NUGC-3, 48 h
NUGC-3 [15] = assay: Growth of human NUGC3 cells at 0.3 uM after 48 hrs by SRB assay; conditions: NUGC-3, 48 h
HCT-15 [16] = assay: Growth of human HCT15 cells at 0.3 uM after 48 hrs by SRB assay; conditions: HCT-15, 48 h
NCI-H23 [17] = assay: Growth of human NCI-H23 cells at 10 uM after 48 hrs by SRB assay; conditions: NCI-H23, 48 h
NCI-H23 [18] = assay: Growth of human NCI-H23 cells at 0.3 uM after 48 hrs by SRB assay; conditions: NCI-H23, 48 h
MDA-MB-231 [19] = assay: Growth of human MDA-MB-231 cells at 1 uM after 48 hrs by SRB assay; conditions: MDA-MB-231, 48 h
MDA-MB-231 [20] = assay: Growth of human MDA-MB-231 cells at 10 uM after 48 hrs by SRB assay; conditions: MDA-MB-231, 48 h
MDA-MB-231 [21] = assay: Growth of human MDA-MB-231 cells at 0.1 uM after 48 hrs by SRB assay; conditions: MDA-MB-231, 48 h
MDA-MB-231 [22] = assay: Growth of human MDA-MB-231 cells at 3 uM after 48 hrs by SRB assay; values are per cent of control; conditions: MDA-MB-231, 48 h
PC-3 [23] = assay: Growth inhibition of human PC3 cells at 1 uM after 48 hrs by SRB assay; values are per cent of control; conditions: PC-3, 48 h
PC-3 [24] = assay: Growth inhibition of human PC3 cells at 3 uM after 48 hrs by SRB assay; values are per cent of control; conditions: PC-3, 48 h
ACHN [25] = assay: Growth inhibition of human ACHN cells at 3 uM after 48 hrs by SRB assay; values are per cent of control
ACHN [26] = assay: Growth inhibition of human ACHN cells at 1 uM after 48 hrs by SRB assay; values are per cent of control
NUGC-3 [27] = assay: Growth inhibition of human NUGC3 cells at 3 uM after 48 hrs by SRB assay; values are per cent of control; conditions: NUGC-3, 48 h
PC-3 [28] = assay: Growth inhibition of human PC3 cells at 0.1 uM after 48 hrs by SRB assay; values are per cent of control; conditions: PC-3, 48 h
PC-3 [29] = assay: Growth inhibition of human PC3 cells at 0.3 uM after 48 hrs by SRB assay; values are per cent of control; conditions: PC-3, 48 h
HCT-15 [30] = assay: Growth inhibition of human HCT15 cells at 1 uM after 48 hrs by SRB assay; values are per cent of control; conditions: HCT-15, 48 h
NUGC-3 [31] = assay: Growth inhibition of human NUGC3 cells at 10 uM after 48 hrs by SRB assay; values are per cent of control; conditions: NUGC-3, 48 h
HCT-15 [32] = assay: Growth inhibition of human HCT15 cells at 10 uM after 48 hrs by SRB assay; values are per cent of control; conditions: HCT-15, 48 h
NCI-H23 [33] = assay: Growth inhibition of human NCI-H23 cells at 1 uM after 48 hrs by SRB assay; values are per cent of control; conditions: NCI-H23, 48 h
NCI-H23 [34] = assay: Growth inhibition of human NCI-H23 cells at 3 uM after 48 hrs by SRB assay; values are per cent of control; conditions: NCI-H23, 48 h
HCT-15 [35] = assay: Growth inhibition of human HCT15 cells at 0.1 uM after 48 hrs by SRB assay; values are per cent of control; conditions: HCT-15, 48 h
NCI-H23 [36] = assay: Growth inhibition of human NCI-H23 cells at 0.1 uM after 48 hrs by SRB assay; values are per cent of control; conditions: NCI-H23, 48 h
MDA-MB-231 [37] = assay: Growth inhibition of human MDA-MB-231 cells at 0.3 uM after 48 hrs by SRB assay; values are per cent of control; conditions: MDA-MB-231, 48 h

Chain of Rho-related GTP-binding protein RhoB (Homo sapiens) (P62745 whole entry): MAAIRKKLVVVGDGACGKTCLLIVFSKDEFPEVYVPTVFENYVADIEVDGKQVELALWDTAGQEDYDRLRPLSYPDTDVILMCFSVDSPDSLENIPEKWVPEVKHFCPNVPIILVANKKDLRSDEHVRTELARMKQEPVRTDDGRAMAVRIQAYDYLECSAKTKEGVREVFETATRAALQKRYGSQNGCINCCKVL

| Compound | GI50 (NCI-H23 [1]) [nM] | GI50 (HCT-15 [2]) [nM] | Activity [3] | GI50 (NUGC-3 [4]) [nM] | GI50 (ACHN [5]) [nM] | GI50 (MDA-MB-231 [6]) [nM] | GI50 (PC-3 [7]) [nM] | growth, % of control at 10 µM (PC-3 [8]) [%] | growth, % of control at 1 µM (NUGC-3 [9]) [%] | growth, % of control at 10 µM (ACHN [10]) [%] | growth, % of control at 3 µM (HCT-15 [11]) [%] | growth, % of control at 0.1 µM (ACHN [12]) [%] | growth, % of control at 0.3 µM (ACHN [13]) [%] | growth, % of control at 0.1 µM (NUGC-3 [14]) [%] | growth, % of control at 0.3 µM (NUGC-3 [15]) [%] | growth, % of control at 0.3 µM (HCT-15 [16]) [%] | growth, % of control at 10 µM (NCI-H23 [17]) [%] | growth, % of control at 0.3 µM (NCI-H23 [18]) [%] | growth, % of control at 1 µM (MDA-MB-231 [19]) [%] | growth, % of control at 10 µM (MDA-MB-231 [20]) [%] | also measured |
| --- | --- | --- | --- | --- | --- | --- | --- | --- | --- | --- | --- | --- | --- | --- | --- | --- | --- | --- | --- | --- | --- |
| CCCCCCCCCCCCCCS(=O)(=O)N(C)CCC[N+](C)(C)CC | 380 | 1270 | Active | 130 | 540 | 750 | 220 | -31.6 | 7.9 | 16.9 | 42.2 | 87.9 | 78.5 | 75.5 | 46.3 | 87.8 | -16.9 | 79.8 | 55.2 | 7.1 | growth, % of control at 0.1 µM (MDA-MB-231 [21]): 95.9%; growth, % of control at 3 µM (MDA-MB-231 [22]): 32.1%; growth, % of control at 1 µM (PC-3 [23]): 14.6%; growth, % of control at 3 µM (PC-3 [24]): -17%; growth, % of control at 3 µM (ACHN [25]): 31.4%; growth, % of control at 1 µM (ACHN [26]): 41.7%; growth, % of control at 3 µM (NUGC-3 [27]): -12.5%; growth, % of control at 0.1 µM (PC-3 [28]): 84.9%; growth, % of control at 0.3 µM (PC-3 [29]): 68.3%; growth, % of control at 1 µM (HCT-15 [30]): 68.9%; growth, % of control at 10 µM (NUGC-3 [31]): -18.3%; growth, % of control at 10 µM (HCT-15 [32]): 23%; growth, % of control at 1 µM (NCI-H23 [33]): 38.4%; growth, % of control at 3 µM (NCI-H23 [34]): 3%; growth, % of control at 0.1 µM (HCT-15 [35]): 106%; growth, % of control at 0.1 µM (NCI-H23 [36]): 96.4%; growth, % of control at 0.3 µM (MDA-MB-231 [37]): 91.4% |
| CCCCCCCCCCCCCCS(=O)(=O)N(C)CC[N+](C)(C)CC | 590 | 1610 | Active | 300 | 1300 | 990 | 340 | -12.3 | 43.3 | 25 | 41.1 | 105 | 104 | 96.8 | 95.6 | 96.8 | 16.3 | 94.6 | 63.1 | 18.2 | growth, % of control at 0.1 µM (MDA-MB-231 [21]): 99%; growth, % of control at 3 µM (MDA-MB-231 [22]): 36.4%; growth, % of control at 1 µM (PC-3 [23]): 57.1%; growth, % of control at 3 µM (PC-3 [24]): 13.3%; growth, % of control at 3 µM (ACHN [25]): 50.1%; growth, % of control at 1 µM (ACHN [26]): 77.1%; growth, % of control at 3 µM (NUGC-3 [27]): 19%; growth, % of control at 0.1 µM (PC-3 [28]): 96.5%; growth, % of control at 0.3 µM (PC-3 [29]): 95.3%; growth, % of control at 1 µM (HCT-15 [30]): 76.3%; growth, % of control at 10 µM (NUGC-3 [31]): 10.1%; growth, % of control at 10 µM (HCT-15 [32]): 21.7%; growth, % of control at 1 µM (NCI-H23 [33]): 86.6%; growth, % of control at 3 µM (NCI-H23 [34]): 53.6%; growth, % of control at 0.1 µM (HCT-15 [35]): 98.2%; growth, % of control at 0.1 µM (NCI-H23 [36]): 92.5%; growth, % of control at 0.3 µM (MDA-MB-231 [37]): 91.6% |
